Results reported in paper PMC10525924, “Engineering and Purification of Microcin C7 Variants Resistant to Trypsin and Analysis of Their Biological Activity” (Antibiotics, 2023).
Values after ≈ are worked out from the molar mass of the structure shown. Where a SMILES comes first, the peptide text is derived from it. Where no end group is shown, it is not given here.

Key:
[1] = HPLC retention time according to hydrophobicity; format: physicochemical; settings: chromatographic, C18 5 μm 9.4 × 250 mm; A 0.1% trichloroacetic acid, B 0.1% trichloroacetic acid with 90% acetonitrile; linear 5% B to 50% B; 1 mL/min; 35 °C; 280 nm; varies according to hydrophobicity
Method: To find the separation peaks of the variants, wildtype McC and blank control fermentation broth samples were tested by HPLC. The separation peaks with obvious differences (those with retention times of 11 min and 17 min) were purified and the antimicrobial activity was determined. […] Therefore, the molecular weight was further analyzed by mass spectrometry, and the separation peak at approximately 17 min was confirmed to be that of the desired purified McC. Since the mutations in this study involved only one amino acid and had few effects on the properties of the peptides, we predicted that the separation peaks of the variants should fluctuate around approximately 17 min according to their hydrophobicity. […] The purity of the purified variants was determined by HPLC to be greater than 80% (Table 3).
The lyophilized supernatants were dissolved in deionized water, filtered through 0.22 μm aqueous-phase filter membranes, and purified by high-performance liquid chromatography (HPLC, Agilent Technologies Inc., Palo Alto, CA, USA) with C18 column (5 μm 9.4 × 250 mm, Agilent Technologies Inc., Palo Alto, CA, USA). The mobile phase was composed of 0.1% (v/v) trichloroacetic acid (solvent A) and 0.1% (v/v) trichloroacetic acid with 90% (v/v) acetonitrile (solvent B). A linear gradient from 95% A/5% B to 50% A/50% B was used with a flow rate of 1 mL/min, a sample volume of 10 μL, a column temperature of 35 °C, and a detection wavelength of 280 nm. Electrospray ionization mass spectrometry (ESI-MS) was used to compare the McC variant masses with the expected masses. The relationships between the relative abundances and the mass-to-charge ratios (m/z) of the ions were determined to confirm the identities of the experimentally produced McC variants.

Yej^+rimL^− strain [2] = experiment: organism not typed; format: cell-based; settings: agar diffusion; for Diameters of the inhibition zones, Trypsin-Untreated Group, Yej^+rimL^−: 200 μL fermentation supernatant, 1 × 10^5 CFU/mL, 4 °C 1 h then 37 °C 24 h, chloramphenicol 100 μL of 0.25 μg/mL; for Diameters of the inhibition zones, Trypsin-Untreated Group, Yej^+rimL^− / Diameters of the inhibition zones, Trypsin-Treated Group, Yej^+rimL^−: dash = no zone; for bacteriostatic activity after trypsin treatment, Yej^+rimL^− / Diameters of the inhibition zones, Trypsin-Treated Group, Yej^+rimL^−: supernatant treated with trypsin 50 μg/mL, 37 °C, 3 h; for Diameters of the inhibition zones, Trypsin-Treated Group, Yej^+rimL^−: pH 6.8, 37 °C 24 h
Description: To analyze the antimicrobial ability of the variants, we measured the inhibition zones of all 21 variants by the agar diffusion method. The peptide moiety of McC was recognized by a YejABEf-peptide transporter. The rimL contains an acetyltransferase domain homologous to MccE which can detoxify and provide resistance to McC [17]. The overexpression of the YejABEF gene cluster and rimL gene knockout made the strain hypersensitive to McC. Therefore, the Yej^+rimL^− strain was selected as the sensitive indicator bacterial strain.
(§1) The pH was adjusted to 6.8.
(§2) The fermentation supernatants and pure products were used to characterize the bacteriostatic effects of McC variants by the agar diffusion and microdilution methods. Yej^+rimL^− and E. coli K88 indicator bacteria were applied. The serotype of E. coli K88 was O149:K91, K88ac, a clinically isolated strain, and provided by the College of Veterinary Medicine, China Agricultural University. The indicated bacteria were diluted to 1 × 10^5 CFU/mL and added to plate medium cooled to 50 °C. Two hundred microliters of supernatants were added to each dish, and diffusion was performed at 4 °C for 1 h. After incubation at 37 °C for 24 h, the diameters of the inhibition zones were determined. One hundred microliters of 0.25 μg/mL chloramphenicol was used as a control. The MICs of the pure McC variants were determined by microdilution in a sterilized 96-well microplate. The McC variants were serially diluted 2 times in 96-well microplates with LB medium. The concentrations of the McC variants ranged from 0.125 to 100 µg/mL. Each well was inoculated with 10 μL of overnight bacterial culture at a concentration of 1.0 × 10^5 CFU/mL and incubated at 37 °C for 24 h. A microplate reader was used to automatically observe changes in absorbance at 600 nm in order to monitor bacterial growth. A positive control group (including inoculated medium) and a negative control group (with medium only) were included. The MIC was determined as the lowest concentration of McC variant that inhibited bacterial growth (preventing an increase in the absorbance reading). All tests were performed in triplicate.

Yej^+rimL^− strain [3] = format: cell-based; settings: HPLC-purified variants; microdilution in LB, 96-well; 0.125 to 100 µg/mL; 1.0 × 10^5 CFU/mL; 37 °C 24 h; absorbance 600 nm; triplicate
Method: To accurately characterize the bacteriostatic abilities of the variants, the MICs of the pure McC variants toward the McCsensitive strain Yej^+rimL^− were determined. The MICs of all variants were lower than that of wild-type McC. From smallest to largest MIC, the above five variants were in the following order: R2A, R2T, R2Q, R2S, and R2H. […] Although the diameter of the inhibitory zone of R2M was smaller than those of the above five variants, the bacteriostatic ability of R2M was second only to R2T/R2Q, and the MIC was 50 μg/mL.
as §2

E. coli K88 = experiment: microbe, parasite or virus in culture; format: cell-based; settings: agar diffusion; for Diameters of the inhibition zones, Trypsin-Untreated Group, K88: 200 μL fermentation supernatant, 1 × 10^5 CFU/mL, 4 °C 1 h then 37 °C 24 h, chloramphenicol 100 μL of 0.25 μg/mL; for Diameters of the inhibition zones, Trypsin-Untreated Group, K88 / Diameters of the inhibition zones, Trypsin-Treated Group, K88: dash = no zone; for antimicrobial activity after trypsin treatment, K88 / Diameters of the inhibition zones, Trypsin-Treated Group, K88: supernatant treated with trypsin 50 μg/mL, 37 °C, 3 h; for Diameters of the inhibition zones, Trypsin-Treated Group, K88: pH 6.8, 37 °C 24 h
Method: as §1, §2

[4] = Remaining amount by RP-HPLC after chymotrypsin treatment; format: in vitro ADME; settings: isolated enzyme chymotrypsin; chymotrypsin treated for 3 h; read-out RP-HPLC; Table S2
Method: (§3) To test whether the variants were tolerant to trypsin or other digestive enzymes, the amount of the remaining McC and its analogues remaining was determined by RP-HPLC after trypsin, pepsin, and chymotrypsin treated for 3 h (Table S2), and the inhibition zones of trypsin-treated variants were tested using the same method (Table 2).

[5] = Remaining amount by RP-HPLC after pepsin treatment; format: in vitro ADME; settings: isolated enzyme pepsin; pepsin treated for 3 h; read-out RP-HPLC; Table S2
Method: as §3

indicator bacteria = settings: second to seventh codons of mccA replaced; cited from earlier work
Description: The heptapeptide precursor of McC, f-MRTGNAN, is encoded by the first gene in the mcc gene clusters, mccA [11]. Considering its protein nature, it is suitable for gene-based peptide engineering. Kazakov et al. first applied site-directed mutagenesis on the mccA gene, systematically replacing the second to seventh codons of mccA encoding 19 standard amino acids for a total of 114 mutations.

Row | Molecule | Retention Time [1] [min] | Diameters of the inhibition zones, Trypsin-Untreated Group, Yej^+rimL^− (Yej^+rimL^− strain [2]) [mm] | MIC (Yej^+rimL^− strain [3]) [µg/mL] | Diameters of the inhibition zones, Trypsin-Untreated Group, K88 (E. coli K88) [mm] | remaining at 3 h [4] [%] | remaining at 3 h [5] [%] | bacteriostatic activity after trypsin treatment, Yej^+rimL^− (Yej^+rimL^− strain [2]) | Diameters of the inhibition zones, Trypsin-Treated Group, Yej^+rimL^− (Yej^+rimL^− strain [2]) [mm] | antimicrobial activity after trypsin treatment, K88 (E. coli K88) | Diameters of the inhibition zones, Trypsin-Treated Group, K88 (E. coli K88) [mm] | antimicrobial activity of mccA substitution variants (indicator bacteria)
1 | CSCC[C@H](NC=O)C(=O)N[C@@H](CCCNC(=N)N)C(=O)N[C@H](C(=O)NCC(=O)N[C@@H](CC(N)=O)C(=O)N[C@@H](C)C(=O)N[C@@H](CC(=O)O)C(=O)NP(=O)(OCCCN)OC[C@H]1O[C@@H](n2cnc3c(N)ncnc32)[C@H](O)[C@@H]1O)[C@@H](C)O (some centres unmarked) [McC, Microcin C7] (HELM PEPTIDE1{[O=C[*:2]].M.R.T.G.N.A.[NCCCOP(=O)(NC(=O)[C@H](CC(=O)O)N[*:1])OC[C@H]1O[C@@H](n2cnc3c(N)ncnc32)[C@H](O)[C@@H]1O]}$$$$V2.0) | 17.198 | 29.12 | 1.56 (≈ 1.33 µM) | 20.25 | 41.7 ± 1.07 | 89.3 ± 1.16 |  |  |  |  | 
2 | CSCC[C@H](NC=O)C(=O)N[C@@H](C)C(=O)N[C@H](C(=O)NCC(=O)N[C@@H](CC(N)=O)C(=O)N[C@@H](C)C(=O)N[C@@H](CC(=O)O)C(=O)NP(=O)(OCCCN)OC[C@H]1O[C@@H](n2cnc3c(N)ncnc32)[C@H](O)[C@@H]1O)[C@@H](C)O (some centres unmarked) [R2A] (HELM PEPTIDE1{[O=C[*:2]].M.A.T.G.N.A.[NCCCOP(=O)(NC(=O)[C@H](CC(=O)O)N[*:1])OC[C@H]1O[C@@H](n2cnc3c(N)ncnc32)[C@H](O)[C@@H]1O]}$$$$V2.0) | 17.167 | 21.82 | 12.5 (≈ 11.4 µM) | 16.53 | 42.2 ± 0.86 | 92.2 ± 1.04 | exhibited antibacterial effects | 19.07 | retained their antimicrobial activity | 11.96 | bacteriostatic
3 | CC[C@H](C)[C@H](NC(=O)[C@H](CCSC)NC=O)C(=O)N[C@H](C(=O)NCC(=O)N[C@@H](CC(N)=O)C(=O)N[C@@H](C)C(=O)N[C@@H](CC(=O)O)C(=O)NP(=O)(OCCCN)OC[C@H]1O[C@@H](n2cnc3c(N)ncnc32)[C@H](O)[C@@H]1O)[C@@H](C)O (some centres unmarked) [R2I] (HELM PEPTIDE1{[O=C[*:2]].M.I.T.G.N.A.[NCCCOP(=O)(NC(=O)[C@H](CC(=O)O)N[*:1])OC[C@H]1O[C@@H](n2cnc3c(N)ncnc32)[C@H](O)[C@@H]1O]}$$$$V2.0) | 18.166 | 18.36 | 100 (≈ 88.2 µM) | 10.18 | 41.3 ± 0.55 | 91.72 ± 0.87 | exhibited antibacterial effects | 15.67 |  |  | 
4 | CSCC[C@H](NC=O)C(=O)N[C@@H](CCC(N)=O)C(=O)N[C@H](C(=O)NCC(=O)N[C@@H](CC(N)=O)C(=O)N[C@@H](C)C(=O)N[C@@H](CC(=O)O)C(=O)NP(=O)(OCCCN)OC[C@H]1O[C@@H](n2cnc3c(N)ncnc32)[C@H](O)[C@@H]1O)[C@@H](C)O (some centres unmarked) [R2Q] (HELM PEPTIDE1{[O=C[*:2]].M.Q.T.G.N.A.[NCCCOP(=O)(NC(=O)[C@H](CC(=O)O)N[*:1])OC[C@H]1O[C@@H](n2cnc3c(N)ncnc32)[C@H](O)[C@@H]1O]}$$$$V2.0) | 16.910 | 19.45 | 25 (≈ 21.8 µM) | 21.67 | 49.6 ± 1.19 | 87.6 ± 1.23 | exhibited antibacterial effects | 19.38 | retained their antimicrobial activity | 14.56 | 
5 | CSCC[C@H](NC=O)C(=O)N[C@H](C(=O)N[C@H](C(=O)NCC(=O)N[C@@H](CC(N)=O)C(=O)N[C@@H](C)C(=O)N[C@@H](CC(=O)O)C(=O)NP(=O)(OCCCN)OC[C@H]1O[C@@H](n2cnc3c(N)ncnc32)[C@H](O)[C@@H]1O)[C@@H](C)O)[C@@H](C)O (some centres unmarked) [R2T] (HELM PEPTIDE1{[O=C[*:2]].M.T.T.G.N.A.[NCCCOP(=O)(NC(=O)[C@H](CC(=O)O)N[*:1])OC[C@H]1O[C@@H](n2cnc3c(N)ncnc32)[C@H](O)[C@@H]1O]}$$$$V2.0) | 17.418 | 21.74 | 25 (≈ 22.3 µM) | 15.27 | 46.7 ± 0.66 | 86.76 ± 0.77 | exhibited antibacterial effects | 17.23 | retained their antimicrobial activity | 11.68 | 
6 | A6F: McC substitution variant of Kazakov et al., site-directed mutagenesis of mccA (MRTGNFN; ends and bridges not checked; UniProt Q47505 1-7, looked up, variant A6F) [reference compound] |  |  |  |  |  |  |  |  |  |  | loss of antimicrobial activity
7 | A6M: McC substitution variant of Kazakov et al., site-directed mutagenesis of mccA (MRTGNMN; ends and bridges not checked; UniProt Q47505 1-7, looked up, variant A6M) [reference compound] |  |  |  |  |  |  |  |  |  |  | loss of antimicrobial activity
